Test results published in patent US12030878B2 (BRISTOL-MYERS SQUIBB COMPANY, priority 2017, dated 2024).

What was measured:
Type in all cases: cell-based
[1] = target: T1, human TLR8 (Homo sapiens, UniProt Q9NR97); assay: TLR8 inhibition reporter assay (HEK-Blue SEAP); conditions: HEK-Blue cells overexpressing human TLR8, stimulated with R848 15.9 μM, 22 hour incubation
T1 construct: host or cells: HEK-Blue cells
T1 sequence (Q9NR97 27-1041): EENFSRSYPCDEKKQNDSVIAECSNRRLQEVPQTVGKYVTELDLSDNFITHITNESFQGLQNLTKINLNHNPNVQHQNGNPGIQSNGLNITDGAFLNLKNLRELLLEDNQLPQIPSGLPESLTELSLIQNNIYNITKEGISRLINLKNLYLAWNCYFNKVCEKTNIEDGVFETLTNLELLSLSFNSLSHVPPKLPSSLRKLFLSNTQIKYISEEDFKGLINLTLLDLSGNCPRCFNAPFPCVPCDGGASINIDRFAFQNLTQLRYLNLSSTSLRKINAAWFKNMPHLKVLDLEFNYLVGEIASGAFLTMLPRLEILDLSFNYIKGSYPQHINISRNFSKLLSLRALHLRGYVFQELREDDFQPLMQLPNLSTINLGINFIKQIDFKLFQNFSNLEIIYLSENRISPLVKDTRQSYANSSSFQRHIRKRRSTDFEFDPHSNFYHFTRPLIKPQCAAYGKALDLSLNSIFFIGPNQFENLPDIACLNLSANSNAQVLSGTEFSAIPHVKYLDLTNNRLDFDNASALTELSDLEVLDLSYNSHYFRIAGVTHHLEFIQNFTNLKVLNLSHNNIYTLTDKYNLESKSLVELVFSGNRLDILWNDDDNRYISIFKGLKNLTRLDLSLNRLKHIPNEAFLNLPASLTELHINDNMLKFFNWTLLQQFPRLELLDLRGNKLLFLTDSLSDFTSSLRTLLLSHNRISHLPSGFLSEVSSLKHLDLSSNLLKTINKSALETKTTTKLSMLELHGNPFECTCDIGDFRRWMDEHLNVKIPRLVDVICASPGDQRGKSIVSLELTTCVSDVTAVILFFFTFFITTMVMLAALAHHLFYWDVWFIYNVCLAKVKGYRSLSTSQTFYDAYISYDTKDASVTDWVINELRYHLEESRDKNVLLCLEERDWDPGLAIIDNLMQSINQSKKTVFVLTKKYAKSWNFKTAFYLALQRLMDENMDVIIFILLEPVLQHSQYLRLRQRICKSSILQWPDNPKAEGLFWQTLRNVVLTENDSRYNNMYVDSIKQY
How it was run: (§1)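 Test compounds, final 0.05 nM–50 μM, pre-treat HEK-Blue human TLR7, TLR8 or TLR9 reporter cells before agonist addition (TLR8 R848 15.9 μM; TLR7 gardiquimod 7.5 μM; TLR9 ODN2006 5 nM). Incubation runs 22 h, 37 °C. SEAP detection gives percent inhibition against DMSO and reference-inhibitor controls.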

[2] = target: T2, human TLR9 (Homo sapiens, UniProt Q9NR96); assay: TLR9 inhibition reporter assay (HEK-Blue SEAP); conditions: HEK-Blue cells overexpressing human TLR9, stimulated with ODN2006 5 nM, 22 hour incubation
T2 construct: host or cells: HEK-Blue cells
T2 sequence (Q9NR96 26-1032): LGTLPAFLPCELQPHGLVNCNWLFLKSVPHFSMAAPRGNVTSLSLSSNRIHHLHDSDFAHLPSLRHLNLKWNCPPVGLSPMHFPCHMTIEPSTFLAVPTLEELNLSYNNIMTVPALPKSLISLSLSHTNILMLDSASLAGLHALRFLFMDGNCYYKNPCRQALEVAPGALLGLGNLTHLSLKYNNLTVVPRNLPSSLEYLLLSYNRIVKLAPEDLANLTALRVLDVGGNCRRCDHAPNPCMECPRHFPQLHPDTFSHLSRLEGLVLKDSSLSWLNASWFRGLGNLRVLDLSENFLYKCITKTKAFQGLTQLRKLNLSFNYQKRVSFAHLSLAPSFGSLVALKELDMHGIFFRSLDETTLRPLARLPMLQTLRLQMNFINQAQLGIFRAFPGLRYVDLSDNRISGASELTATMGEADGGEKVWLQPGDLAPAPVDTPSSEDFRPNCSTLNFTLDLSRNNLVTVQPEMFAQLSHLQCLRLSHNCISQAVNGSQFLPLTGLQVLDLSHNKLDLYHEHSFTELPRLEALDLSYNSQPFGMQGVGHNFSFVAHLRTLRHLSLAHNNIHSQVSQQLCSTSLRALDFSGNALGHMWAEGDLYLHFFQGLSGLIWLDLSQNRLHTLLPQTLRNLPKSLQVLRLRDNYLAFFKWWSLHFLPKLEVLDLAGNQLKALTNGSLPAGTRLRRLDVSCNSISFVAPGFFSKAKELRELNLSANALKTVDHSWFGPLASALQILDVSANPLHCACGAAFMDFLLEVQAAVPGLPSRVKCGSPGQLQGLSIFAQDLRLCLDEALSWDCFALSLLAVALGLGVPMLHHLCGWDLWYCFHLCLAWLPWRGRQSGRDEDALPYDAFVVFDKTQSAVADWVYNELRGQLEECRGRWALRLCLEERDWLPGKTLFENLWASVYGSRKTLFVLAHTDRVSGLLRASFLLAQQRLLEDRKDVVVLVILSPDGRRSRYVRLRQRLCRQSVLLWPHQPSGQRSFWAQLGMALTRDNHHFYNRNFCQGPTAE
How it was run: as §1

[3] = target: T3, human TLR7 (Homo sapiens, UniProt Q9NYK1); assay: TLR7 inhibition reporter assay (HEK-Blue SEAP); conditions: HEK-Blue cells overexpressing human TLR7, stimulated with gardiquimod 7.5 μM, 22 hour incubation
T3 construct: host or cells: HEK-Blue cells
T3 sequence (Q9NYK1 27-1049): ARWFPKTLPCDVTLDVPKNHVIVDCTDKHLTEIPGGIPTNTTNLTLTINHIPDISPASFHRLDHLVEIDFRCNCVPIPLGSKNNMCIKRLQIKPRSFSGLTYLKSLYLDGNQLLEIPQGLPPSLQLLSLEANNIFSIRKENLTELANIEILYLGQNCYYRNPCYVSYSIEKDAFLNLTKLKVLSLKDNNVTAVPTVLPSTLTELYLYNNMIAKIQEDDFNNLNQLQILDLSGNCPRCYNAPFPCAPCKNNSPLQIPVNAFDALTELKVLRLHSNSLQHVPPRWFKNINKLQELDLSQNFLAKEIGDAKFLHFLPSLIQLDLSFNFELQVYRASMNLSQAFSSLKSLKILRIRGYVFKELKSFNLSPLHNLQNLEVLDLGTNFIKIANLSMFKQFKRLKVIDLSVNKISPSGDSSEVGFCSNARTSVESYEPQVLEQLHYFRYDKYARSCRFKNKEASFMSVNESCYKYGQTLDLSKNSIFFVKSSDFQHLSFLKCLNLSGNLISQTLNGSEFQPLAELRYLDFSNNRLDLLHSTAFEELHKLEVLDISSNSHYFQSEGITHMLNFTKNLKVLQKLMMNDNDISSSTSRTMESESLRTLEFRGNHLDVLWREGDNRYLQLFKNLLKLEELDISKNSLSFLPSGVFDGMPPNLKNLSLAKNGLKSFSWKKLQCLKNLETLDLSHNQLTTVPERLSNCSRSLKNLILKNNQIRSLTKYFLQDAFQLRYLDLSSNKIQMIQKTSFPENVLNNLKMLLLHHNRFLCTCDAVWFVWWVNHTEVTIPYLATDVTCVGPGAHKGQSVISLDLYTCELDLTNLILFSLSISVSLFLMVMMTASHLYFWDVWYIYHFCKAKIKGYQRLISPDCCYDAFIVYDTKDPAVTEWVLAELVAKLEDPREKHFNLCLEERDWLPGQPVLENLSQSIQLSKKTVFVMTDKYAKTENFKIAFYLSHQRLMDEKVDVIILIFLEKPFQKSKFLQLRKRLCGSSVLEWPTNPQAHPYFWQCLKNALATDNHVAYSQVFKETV
How it was run: as §1

SMILES | IC50 [1] [nM] | IC50 [2] [nM] | IC50 [3] [nM]
Cc1cc(-c2[nH]c3ccc(OCC4CN(C)C4)cc3c2C(C)C)cn2ncnc12 [Example 59, 6-(3-isopropyl-5-((1-methylazetidin-3-yl)methoxy)-1H-indol-2-yl)-8-methyl-[1,2,4]triazolo[1,5-a]pyridine] | 6.8 | 2990 | 0.5
Cc1cc(-c2[nH]c3ccc(OCC4CN(C5COC5)C4)cc3c2C(C)C)cn2ncnc12 [Example 60, 6-(3-isopropyl-5-((1-(oxetan-3-yl)azetidin-3-yl)methoxy)-1H-indol-2-yl)-8-methyl-[1,2,4]triazolo[1,5-a]pyridine] | 4.7 | 2620 | 1.2
Cc1c(-c2[nH]c3ccc(OCC4CN(C)C4)cc3c2C(C)C)cn2cnnc2c1C [Example 61, 6-(3-isopropyl-5-((1-methylazetidin-3-yl)methoxy)-1H-indol-2-yl)-7,8-dimethyl-[1,2,4]triazolo[4,3-a]pyridine] | 439 | 6360 | 493
CCCN1CCC(COc2ccc3[nH]c(-c4cn5cnnc5c(C)c4C)c(C(C)C)c3c2)CC1 [Example 62, 6-(3-isopropyl-5-((1-propylpiperidin-4-yl)methoxy)-1H-indol-2-yl)-7,8-dimethyl-[1,2,4]triazolo[4,3-a]pyridine] | 6 | 1290 | 1
CCCN1CCC(Oc2ccc3[nH]c(-c4cn5cnnc5c(C)c4C)c(C(C)C)c3c2)CC1 [Example 63, 6-(3-isopropyl-5-((1-propylpiperidin-4-yl)oxy)-1H-indol-2-yl)-7,8-dimethyl-[1,2,4]triazolo[4,3-a]pyridine] | 2.5 | 2190 | 2.1
Cc1cc(-c2[nH]c3ccc(OC4CCC(N(C)C)CC4)cc3c2C(C)C)cn2ncnc12 (stereo not drawn) [Example 64, 4-((3-isopropyl-2-(8-methyl-[1,2,4]triazolo[1,5-a]pyridin-6-yl)-1H-indol-5-yl)oxy)-N,N-dimethylcyclohexan-1-amine] | 10.6 | 2570 | 0.7
COc1cc(-c2[nH]c3ccc(OC4CCN(C)CC4)cc3c2C(C)C)cn2ncnc12 [Example 65, 6-(3-isopropyl-5-((1-methylpiperidin-4-yl)oxy)-1H-indol-2-yl)-8-methoxy-[1,2,4]triazolo[1,5-a]pyridine] | 0.5 | 1750 | 0.3

More lines, now with the values ahead:

IC50 [1] [nM] | IC50 [2] [nM] | IC50 [3] [nM] | SMILES
0.7 | 1150 | 0.8 | COc1cc(-c2[nH]c3ccc(OC4CCN(C(C)C)CC4)cc3c2C(C)C)cn2ncnc12 [Example 66, 6-(3-isopropyl-5-((1-isopropylpiperidin-4-yl)oxy)-1H-indol-2-yl)-8-methoxy-[1,2,4]triazolo[1,5-a]pyridine]
0.2 | 1060 | 0.2 | CCCN1CCC(Oc2ccc3[nH]c(-c4cc(OC)c5ncnn5c4)c(C(C)C)c3c2)CC1 [Example 67, 6-(3-isopropyl-5-((1-propylpiperidin-4-yl)oxy)-1H-indol-2-yl)-8-methoxy-[1,2,4]triazolo[1,5-a]pyridine]
1.7 | 2290 | 5.9 | Cc1cc(-c2[nH]c3ccc(OC4CCN(C5CCOCC5)CC4)cc3c2C(C)C)cn2ncnc12 [Example 68, 6-(3-isopropyl-5-((1-(tetrahydro-2H-pyran-4-yl)piperidin-4-yl)oxy)-1H-indol-2-yl)-8-methyl-[1,2,4]triazolo[1,5-a]pyridine]
2.4 | 733 | 5.6 | Cc1cc(-c2[nH]c3ccc(OC4CCN(CC(C)O)CC4)cc3c2C(C)C)cc(C)n1 (stereo not drawn) [Example 69, 1-(4-((2-(2,6-dimethylpyridin-4-yl)-3-isopropyl-1H-indol-5-yl)oxy)piperidin-1-yl) propan-2-ol]
1.5 | 1040 | 9.6 | Cc1cc(-c2[nH]c3ccc(OC4CCN(CCO)CC4)cc3c2C(C)C)cc(C)n1 [Example 70, 2-(4-((2-(2,6-dimethylpyridin-4-yl)-3-isopropyl-1H-indol-5-yl)oxy)piperidin-1-yl) ethan-1-ol]
2.5 | 359 | 3.8 | Cc1cc(-c2[nH]c3ccc(OCC4CCN(CCO)CC4)cc3c2C(C)C)cc(C)n1 [Example 71, 2-(4-(((2-(2,6-dimethylpyridin-4-yl)-3-isopropyl-H-indol-5-yl)oxy)methyl)piperidin-1-yl)ethan-1-ol]
1.3 | 528 | 3.8 | Cc1cc(-c2[nH]c3ccc(OC4CCN(CCCO)CC4)cc3c2C(C)C)cc(C)n1 [Example 72, 3-(4-((2-(2,6-dimethylpyridin-4-yl)-3-isopropyl-1H-indol-5-yl)oxy)piperidin-1-yl)propan-1-ol]
5.2 | 633 | 13.4 | COCCN1CCC(COc2ccc3[nH]c(-c4cc(C)nc(C)c4)c(C(C)C)c3c2)CC1 [Example 73, 2-(2,6-dimethylpyridin-4-yl)-3-isopropyl-5-((1-(2-methoxyethyl)piperidin-4-yl)methoxy)-1H-indole]
